Test results: patent publication US5079247A, “N^1 -substituted benz(cd)indol-2-imine compounds as cardiovascular agents” (American Cyanamid Company, priority 1990, dated 1992)

Tests used:
[1] = target: T1, thromboxane synthetase enzyme (Rattus norvegicus, UniProt P49430); assay: Thromboxane synthetase enzyme inhibition (TXB2 formation in platelet suspension, RIA); assay type: cell-based, Okamoto-Aoki spontaneously hypertensive rats (SHR); settings: concentration 1 × 10^-4 M; SHR platelet suspension, 10 minutes at 37° C.
T1 construct: The platelets were isolated by centrifuging the PRP for 10 minutes; from tissue; host or cells: washed platelets from arterial blood of Okamoto-Aoki spontaneously hypertensive rats (animals from Taconic Farms)
T1 sequence (P49430 1-533): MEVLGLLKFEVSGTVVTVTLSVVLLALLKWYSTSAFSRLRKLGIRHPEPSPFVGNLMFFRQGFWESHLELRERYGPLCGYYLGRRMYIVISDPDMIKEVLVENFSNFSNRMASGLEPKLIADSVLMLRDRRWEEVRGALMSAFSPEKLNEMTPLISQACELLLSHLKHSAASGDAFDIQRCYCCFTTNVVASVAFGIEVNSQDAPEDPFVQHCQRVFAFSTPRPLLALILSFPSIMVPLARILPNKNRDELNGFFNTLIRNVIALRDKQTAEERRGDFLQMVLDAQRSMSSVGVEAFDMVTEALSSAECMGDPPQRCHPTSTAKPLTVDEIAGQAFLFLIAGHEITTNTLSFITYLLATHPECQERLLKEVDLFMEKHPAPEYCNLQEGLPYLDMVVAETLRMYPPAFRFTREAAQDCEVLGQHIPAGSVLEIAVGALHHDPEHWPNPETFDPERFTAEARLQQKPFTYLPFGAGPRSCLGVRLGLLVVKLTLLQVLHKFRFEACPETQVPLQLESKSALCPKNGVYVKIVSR
Procedure: Under urethan anethesia, […] of arterial blood from Okamoto-Aoki spontaneously hypertensive rats (SHR) (Taconic Farms, Germantown, New York) between 19 and 24 weeks in age was collected in 1 ml of 3.2% sodium citrate in a polystyrene tube. The blood was diluted with 3 ml of cold saline and centrifuged at room temperature for 15 minutes at 460Xg. The platelet rich plasma (PRP) was separated. The platelets were isolated by centrifuging the PRP for 10 minutes at 1060Xg and were washed in 4 ml of cold oxygenated Krebs phosphate buffer, pH 7.4. The chilled platelets, recovered from centrifuging at 800Xg for 10 minutes, were resuspended in oxygenated Krebs phosphate buffer and diluted to contain 4.5-6.0×10^4 platelets/μl. The inhibition of thromboxane (TX) formation was studied by determining the concentration of thromboxane B2 (TXB2), the stable hydrolysis product of TXA2. Assay samples, prepared on ice, contained 200 μl platelet suspension, 50 μl saline, and 50 μl vehicle or drug under study at a concentration of 1×10^-4 M. The samples were incubated for 10 minutes at 37° C. in metabolic shaker. The reaction was terminated by immersing the tubes in an ice bath and adding 50 μl of 0.5M citric acid. The samples were centrifuged for 10 minutes in a refrigerated centrifuge and the supernatants thus obtained were decanted and stored at -20° C. The TXB2 content for each sample was determined by a direct radioimmunoassay (RIA) utilizing a TXB2 specific RIA kit purchased from New England Nuclear, Boston, Massachusetts and expressed as pg TXB2 formed minute^-1 sample^-1, from which the percent inhibition of TXB2 formation was calculated.

[2] = tested on: spontaneously hypertensive rats of the Okamoto strain; assay: Hypotensive activity in spontaneously hypertensive rats (method of Chan and Poorvin); assay type: in vivo, rat; settings: by gavage, 100 mg/kg or less, two doses 24 hours apart; MABP at 28 hours after initial dose; average baseline MABP 160±1.5 mm of mercury
Procedure: The novel compounds of the present invention are active hypotensive agents and were tested for hypotensive activity by the method of P. S. Chan and D. Poorvin, Clinical and Experimental Hypertension, 1 (6), 817-830 (1979). Male, 16 week old, spontaneously hypertensive rats of the Okamoto strain, from Taconic Farms, Germantown, New York, having an average mean arterial blood pressure of 160±1.5 mm of mercury, were used in the test. One to 3 rats were used per test compound. […] A second identical dose of the test compound, without sodium chloride loading was given 24 hours later. At 28 hours after the initial dose the mean arterial blood pressure (MABP) was measured. The procedure was repeated in a second and third rat when necessary.

[3] = tested on: CaCl2-induced cardiac arrhythmias, fibrillation and cardiac death in mice; assay: Antiarrhythmic/antifibrillatory activity in anesthetized mice, calcium chloride challenge; assay type: in vivo, mice of the Swiss Webster Strain; settings: Mus musculus, iv, 0.25 h; Dose = 10 mg/kg I.V.; calcium chloride 200 mg/kg i.v.; 15 minutes observation; read-out: CaCl2 Mice Surviving / Mice Tested (converted)
Description: (§1) Intravenous administration of high doses of calcium or potassium chloride in animals produces cardiac arrhythmias, cardiac fibrillation and cardiac arrest. Any agent that can prevent these events is considered an antiarrhythmic/antifibrillatory agent. (Meth. and Find Exptl. Clin Pharmacal.2:223-252(1980); Pharmacol Ther. 24:401-433 (1984); Experimental Cardiac and Antiarrhythmic Drugs, L. Szekeres and Gy. J. Dapp, Akademiai Kiado Preso, Budapest, 9-448 (1971)).
(§2) The method employed is as follows: Male mice of the Swiss Webster Strain (Charles River, Wilmington, MA) weighing 25-35 g were anesthetized with ethyl carbamate (urethan) (1.5g/kg body weight i.p.). A 25-gauge needle attached to PE-20 tubing was inserted into a caudal vein for drug administration. The lead II ECG was recorded by needle electrodes placed subcutaneously in the limbs. All data were collected on a Gould Brush recorder. Animals were observed 5 minutes before drug administration. A 5, 15 or 30 minute period following drug administration was allowed before the bolus injection of calcium chloride, 200 mg/ kg i.v. or potassium chloride, 62.5 mg/kg i.v. Control mice received 4 ml/kg of 0.9% sodium chloride i.v. Mice were observed an additional 15 minutes for arrhythmias,fibrillation, survival or death. Any compound at a dose of less than 20 mg/kg i.v. in either test that protects from cardiac death 3 or more mice out of 6 mice, is considered active.

[4] = tested on: KCl-induced cardiac arrhythmias, fibrillation and cardiac death in mice; assay: Antiarrhythmic/antifibrillatory activity in anesthetized mice, potassium chloride challenge; assay type: in vivo, mice of the Swiss Webster Strain; settings: Mus musculus, iv, 0.25 h; Dose = 10 mg/kg I.V.; potassium chloride 62.5 mg/kg i.v.; 15 minutes observation; read-out: KCl Mice Surviving / Mice Tested (converted)
Description: as §1, §2

c1cc2c3c(cccc3c1)N(CCN1CCOCC1)C2=NCCCn1ccnc1 [Example 8, N-[1-[2-(4-Morpholinyl)ethyl]benz[cd]indol-2(1H)-ylidene-1H-imidazole-1-propanamine, (E)-2-butenedioate (1:2)]
inhibition at 100 µM [1]: 96% | Avg. MABP in mm Hg (No. of Rats) [2]: 119 mm Hg | responders at 10 mg/kg [3]: 0% | responders at 10 mg/kg [4]: 83.3%

c1ccc(CN2C(=NCCCCn3ccnc3)c3cccc4cccc2c34)cc1 [Example 23, N-[1-(Phenylmethyl)benz[cd]indol-2(1H)-ylidene-1H-imidazole-1-butanamine,(E)-2-butenedioate (1:2)]
inhibition at 100 µM [1]: 100% | Avg. MABP in mm Hg (No. of Rats) [2]: 124 mm Hg | responders at 10 mg/kg [3]: 33.3% | responders at 10 mg/kg [4]: 100%

CN1C(=NCCCc2cccnc2)c2cccc3cccc1c23 [Example 26, N-(1 Methylbenz[cd]indol-2(1H) -ylidene)-3-pyridinepropanamine, (E)-2-butenedioate (2:3)]
inhibition at 100 µM [1]: 93% | Avg. MABP in mm Hg (No. of Rats) [2]: 114 mm Hg | responders at 10 mg/kg [3]: 16.7% | responders at 10 mg/kg [4]: 33.3%

CN1C(=NCCCCc2cccnc2)c2cccc3cccc1c23 [Example 27]
inhibition at 100 µM [1]: 100% | Avg. MABP in mm Hg (No. of Rats) [2]: 107 mm Hg | responders at 10 mg/kg [3]: 58.3% | responders at 10 mg/kg [4]: 50%

N#CCCCCN1C(=NCCCCc2cccnc2)c2cccc3cccc1c23 [Example 32, N2-[[4-(3-Pyridinyl)butyl]imino]benz[cd]indole-1(2H)-pentanenitrile, (E)2-butenedioate (4:7)]
inhibition at 100 µM [1]: 98% | Avg. MABP in mm Hg (No. of Rats) [2]: 129 mm Hg | responders at 10 mg/kg [3]: 33.3% | responders at 10 mg/kg [4]: 83.3%

CC(CCn1ccnc1)N=C1c2cccc3cccc(c23)N1C(c1ccccc1)c1ccccc1 (stereo not drawn) [Example 35, N-[1-(Diphenylmethyl)benz[cd]indol-2(1H)-ylidene]alpha-methyl-1H-imidazole-1-propanamine]
inhibition at 100 µM [1]: 88% | Avg. MABP in mm Hg (No. of Rats) [2]: 127 mm Hg | responders at 10 mg/kg [3]: 0% | responders at 10 mg/kg [4]: 50%
